Measured values taken from patent US20090105124A1, “HETEROCYCLIC MODULATORS OF TGR5” (Kalypsys, Inc., priority 2007, published 2009).
pEC50: −log10 of the molar value.

What follows are molecules tested against T1, human TGR5 (Homo sapiens, UniProt Q8TDU6) (assay: cAMP production assay in HEK293 cells stably expressing TGR5 (LANCE cAMP, TR-FRET)). Conditions: stimulated with test compounds for 30 minutes, 1 mM IBMX, read-out: cAMP Production in 293-TGR5 Cells.
T1 construct: expressed in transfected cells
T1 sequence (Q8TDU6 1-330): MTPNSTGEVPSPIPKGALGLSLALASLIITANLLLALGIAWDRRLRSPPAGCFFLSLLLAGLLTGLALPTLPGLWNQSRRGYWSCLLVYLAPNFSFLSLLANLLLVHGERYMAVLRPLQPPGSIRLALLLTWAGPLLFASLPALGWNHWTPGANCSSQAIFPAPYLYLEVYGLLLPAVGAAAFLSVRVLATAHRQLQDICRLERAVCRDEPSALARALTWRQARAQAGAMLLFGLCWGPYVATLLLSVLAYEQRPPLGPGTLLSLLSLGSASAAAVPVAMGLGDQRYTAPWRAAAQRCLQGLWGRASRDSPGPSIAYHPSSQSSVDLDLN
Type: cell-based
Method: HEK293 cells stably expressing TGR5 (HEK293-TGR5) were established by stably transfecting HEK-293 cells with an expression vector (pcDNA 3.1, Invetrogen) inserted with human TGR5 cDNA using Fugene6 (Roche, Indianapolis, Ind.) according to conventional methods. Cells were grown in DMEM (invitrogen, Carlsbad, Calif.) supplemented with 10% FBS, 1% penicillin/streptomycin under geneticin selection. The presence of TGR5 transcripts in these cells was confirmed using branched DNA (bDNA, Genospectra, Inc., Fremont Calif.) following the manufacturer's protocol and using specific probes for human TGR5. cAMP production assay was performed in high throughput 1536 well format using LANCE cAMP detection kit (Perkin Elmer Inc., Boston, Mass.) according to the manufacturer's protocol. Briefly, HEK293-TGR5 cells were harvested using non-enzymatic cell dissociation buffer (Invitrogen, Carlsbad, Calif.) and suspended in DMEM supplemented with 0.1% FBS at a density of 800,000 cells/ml. Alexa antibody was added to the cell suspension, and 4 ul of the mixture was dispensed in white opaque tissue culture treated Greiner 1536 well plates (USA Scientific, Inc., Ocala, Fla.). After an overnight incubation at 37 C in an atmosphere of 10% CO2 and 95% humidity, 1 ul of 5 mM IBMX (Sigma, St. Louis, Mo.) solution in DMEM was dispensed for a final concentration of 1 mM. Cells were then stimulated with test compounds for 30 minutes, after which time 5 ul of detection reagent was added and incubated for 1-7 hrs at room temperature. TR-FRET signal was detected using the Viewlux (Perkin Elmer Inc., Boston Mass.). EC50 values were determined using Graph Pad Prizm analysis (GraphPad Software, Inc). The EC50 values for a wide range of bile acids generated from this assay were in agreement with the values published in the scientific literature. […] The symbol (+) denotes an EC50 value of ≦10 μM while the symbol (−) denotes an EC50 value of >10 μM (see Table 1).

SMILES	pEC50
O=c1c2sccc2nc(-c2ccc(F)cc2)n1NCc1ccc(Br)cc1 [Example 35, 3-{[(4-Bromophenyl)methyl]amino}-2-(4-fluorophenyl)-3H,4H-thieno[3,2-d]pyrimidin-4-one]	≥ 5.00
O=c1c2sccc2nc(-c2ccc(F)cc2)n1NCc1ccc(Cl)c(Cl)c1 [Example 36, 3-{[(3,4-Dichlorophenyl)methyl]amino}-2-(4-fluorophenyl)-3H,4H-thieno[3,2-d]pyrimidin-4-one]	≥ 5.00
O=c1c2sccc2nc(-c2ccc(F)cc2)n1NCc1ccc(Cl)cc1 [Example 37, 3-{[(4-Chlorophenyl)methyl]amino}-2-(4-fluorophenyl)-3H,4H-thieno[3,2-d]pyrimidin-4-one]	≥ 5.00
Cn1cnc2nc(-c3ccc(F)cc3)n(NCc3ccc(Br)cc3)c(=O)c21 [Example 38, 1-{[(4-Bromophenyl)methyl]amino}-2-(4-fluorophenyl)-7-methyl-6,7-dihydro-1H-purin-6-one]	≥ 5.00
Cn1cnc2nc(-c3ccc(F)cc3)n(NCc3ccc(Cl)cc3)c(=O)c21 [Example 39, 1-{[(4-Chlorophenyl)methyl]amino}-2-(4-fluorophenyl)-7-methyl-6,7-dihydro-1H-purin-6-one]	≥ 5.00
Cn1ncc2nc(-c3ccc(F)cc3)n(NCc3ccc(Br)cc3)c(=O)c21 [Example 40, 6-{[(4-Bromophenyl)methyl]amino}-5-(4-fluorophenyl)-1-methyl-1H,6H,7H-pyrazolo[4,3-d]pyrimidin-7-one]	≥ 5.00
Cn1ncc2nc(-c3ccc(F)cc3)n(NCc3ccc(Cl)cc3)c(=O)c21 [Example 41, 6-{[(4-Chlorophenyl)methyl]amino}-5-(4-fluorophenyl)-1-methyl-1H,6H,7H-pyrazolo[4,3-d]pyrimidin-7-one]	≥ 5.00
Cn1ncc2nc(-c3ccc(F)cc3)n(NCc3ccc(F)c(F)c3)c(=O)c21 [Example 42, 6-{[(3,4-Difluorophenyl)methyl]amino}-5-(4-fluorophenyl)-1-methyl-1H,6H,7H-pyrazolo[4,3-d]pyrimidin-7-one]	< 5.00
O=c1c2nccnc2nc(-c2ccc(F)cc2)n1NCc1ccc(Cl)cc1 [Example 43, 3-{[(4-Chlorophenyl)methyl]amino}-2-(4-fluorophenyl)-3,4-dihydropteridin-4-one]	≥ 5.00
N#Cc1ccc(CNn2c(-c3ccc(F)cc3)nc3nccnc3c2=O)cc1 [Example 44, 4-({[2-(4-Fluorophenyl)-4-oxo-3,4-dihydropteridin-3-yl]amino}methyl)benzonitrile]	≥ 5.00
O=c1c2nccnc2nc(-c2ccc(F)cc2)n1NCc1ccc(Cl)c(F)c1 [Example 45, 3-{[(4-Chloro-3-fluorophenyl)methyl]amino}-2-(4-fluorophenyl)-3,4-dihydropteridin-4-one]	≥ 5.00
O=c1c2nccnc2nc(-c2ccc(F)cc2)n1NCc1ccc(Cl)cc1F [Example 46, 3-{[(4-Chloro-2-fluorophenyl)methyl]amino}-2-(4-fluorophenyl)-3,4-dihydropteridin-4-one]	≥ 5.00

Second part, the molecule after the results:

pEC50	SMILES
≥ 5.00	Cc1cncc(-c2nc3nccnc3c(=O)n2NCc2ccc(Cl)cc2)c1 [Example 47, 3-{[(4-Chlorophenyl)methyl]amino}-2-(5-methylpyridin-3-yl)-3,4-dihydropteridin-4-one]
≥ 5.00	Cc1cncc(-c2nc3nccnc3c(=O)n2NCc2ccc(C#N)cc2)c1 [Example 48, 4-({[2-(5-Methylpyridin-3-yl)-4-oxo-3,4-dihydropteridin-3-yl]amino}methyl)benzonitrile]
≥ 5.00	O=c1c2nccnc2nc(-c2cncc(Cl)c2)n1NCc1ccc(Cl)cc1 [Example 49, 3-{[(4-Chlorophenyl)methyl]amino}-2-(5-chloropyridin-3-yl)-3,4-dihydropteridin-4-one]
< 5.00	O=c1c2nccnc2nc(-c2ccc(F)cc2)n1/N=C/c1ccc(Br)cc1 [Example 50, 3-[(E)-[(4-Bromophenyl)methylidene]amino]-2-(4-fluorophenyl)-3,4-dihydropteridin-4-one]
< 5.00	O=c1c2c(nc(-c3ccc(F)cc3)n1NCc1ccc(Br)cc1)CNCC2 [Example 51, 3-{[(4-Bromophenyl)methyl]amino}-2-(4-fluorophenyl)-3H,4H,5H,6H,7H,8H-pyrido[3,4-d]pyrimidin-4-one]
